Laboratory results published in ChEMBL document CHEMBL1145511, “Comparative activities of daptomycin, linezolid, and tigecycline against catheter-related methicillin-resistant Staphylococcus bacteremic isolates embedded in biofilm” (2007).
≈ marks a conversion by molar mass, not a printed value. Calls of active or inactive are those of the source. No cut-off for these calls is given here.

Key:
[1] = test system: Staphylococcus aureus; experiment: Antibacterial activity against methicillin-resistant Staphylococcus aureus after 24 hrs by silicone disk biofilm colonization method; assay type: functional, organism-based
[2] = test system: Staphylococcus aureus; experiment: Antibacterial activity against methicillin-resistant Staphylococcus aureus at 4 hrs daily exposure for 2 days; assay type: functional, organism-based
[3] = test system: Staphylococcus aureus; experiment: Antibacterial activity against methicillin-resistant Staphylococcus aureus at 4 hrs daily exposure for 5 day; assay type: functional, organism-based
[4] = test system: Staphylococcus aureus; experiment: Antibacterial activity against methicillin-resistant Staphylococcus aureus at 4 hrs daily exposure for 3 days; assay type: functional, organism-based
[5] = test system: Staphylococcus aureus; experiment: Antibacterial activity against methicillin-resistant Staphylococcus aureus 4913 at 4 hrs daily exposure for 5 days by broth microdilution method; assay type: functional
[6] = test system: Staphylococcus aureus; experiment: Antibacterial activity against methicillin-resistant Staphylococcus aureus 4930 at 4 hrs daily exposure for 5 days by broth microdilution method; assay type: functional
[7] = test system: Staphylococcus aureus; experiment: Antibacterial activity against methicillin-resistant Staphylococcus aureus 5098 at 4 hrs daily exposure for 5 days by broth microdilution method; assay type: functional
[8] = test system: Staphylococcus aureus; experiment: Antibacterial activity against methicillin-resistant Staphylococcus aureus 5004 at 4 hrs daily exposure for 5 days by broth microdilution method; assay type: functional
[9] = test system: Staphylococcus aureus; experiment: Antibacterial activity against methicillin-resistant Staphylococcus aureus 4803 at 4 hrs daily exposure for 1 day by broth microdilution method; assay type: functional
[10] = test system: Staphylococcus aureus; experiment: Antibacterial activity against methicillin-resistant Staphylococcus aureus 4913 at 4 hrs daily exposure for 1 day by broth microdilution method; assay type: functional
[11] = test system: Staphylococcus aureus; experiment: Antibacterial activity against methicillin-resistant Staphylococcus aureus 4930 at 4 hrs daily exposure for 1 day by broth microdilution method; assay type: functional
[12] = test system: Staphylococcus aureus; experiment: Antibacterial activity against methicillin-resistant Staphylococcus aureus 5098 at 4 hrs daily exposure for 1 day by broth microdilution method; assay type: functional
[13] = test system: Staphylococcus aureus; experiment: Antibacterial activity against methicillin-resistant Staphylococcus aureus 5004 at 4 hrs daily exposure for 1 day by broth microdilution method; assay type: functional
[14] = test system: Staphylococcus aureus; experiment: Antibacterial activity against methicillin-resistant Staphylococcus aureus 859 at 4 hrs daily exposure for 1 day by broth microdilution method; assay type: functional
[15] = test system: Staphylococcus aureus; experiment: Antibacterial activity against methicillin-resistant Staphylococcus aureus 4875 at 4 hrs daily exposure for 1 day by broth microdilution method; assay type: functional
[16] = test system: Staphylococcus aureus; experiment: Antibacterial activity against methicillin-resistant Staphylococcus aureus 4342 at 4 hrs daily exposure for 1 day by broth microdilution method; assay type: functional
[17] = test system: Staphylococcus aureus; experiment: Antibacterial activity against methicillin-resistant Staphylococcus aureus 293 at 4 hrs daily exposure for 1 day by broth microdilution method; assay type: functional
[18] = test system: Staphylococcus aureus; experiment: Antibacterial activity against methicillin-resistant Staphylococcus aureus 789 at 4 hrs daily exposure for 1 day by broth microdilution method; assay type: functional
[19] = test system: Staphylococcus aureus; experiment: Antibacterial activity against methicillin-resistant Staphylococcus aureus 4803 at 4 hrs daily exposure for 5 days by broth microdilution method; assay type: functional
[20] = test system: Staphylococcus aureus; experiment: Antibacterial activity against methicillin-resistant Staphylococcus aureus 859 at 4 hrs daily exposure for 5 days by broth microdilution method; assay type: functional
[21] = test system: Staphylococcus aureus; experiment: Antibacterial activity against methicillin-resistant Staphylococcus aureus 4875 at 4 hrs daily exposure for 5 days by broth microdilution method; assay type: functional
[22] = test system: Staphylococcus aureus; experiment: Antibacterial activity against methicillin-resistant Staphylococcus aureus 4342 at 4 hrs daily exposure for 5 days by broth microdilution method; assay type: functional
[23] = test system: Staphylococcus aureus; experiment: Antibacterial activity against methicillin-resistant Staphylococcus aureus 293 at 4 hrs daily exposure for 5 days by broth microdilution method; assay type: functional
[24] = test system: Staphylococcus aureus; experiment: Antibacterial activity against methicillin-resistant Staphylococcus aureus 789 at 4 hrs daily exposure for 5 days by broth microdilution method; assay type: functional, organism-based

| SMILES | Activity [1] | Activity [2] | Activity [3] | MIC [5] [µg/mL] | MIC [9] [µg/mL] | MIC [10] [µg/mL] | MIC [11] [µg/mL] | MIC [12] [µg/mL] | MIC [13] [µg/mL] | MIC [14] [µg/mL] | MIC [15] [µg/mL] | MIC [16] [µg/mL] | MIC [17] [µg/mL] | MIC [18] [µg/mL] | Activity [24] | other results |
| --- | --- | --- | --- | --- | --- | --- | --- | --- | --- | --- | --- | --- | --- | --- | --- | --- |
| CCCCCCCCCC(=O)N[C@@H](Cc1c[nH]c2ccccc12)C(=O)N[C@H](CC(N)=O)C(=O)N[C@@H](CC(=O)O)C(=O)N[C@@H]1C(=O)NCC(=O)N[C@@H](CCCN)C(=O)N[C@@H](CC(=O)O)C(=O)N[C@H](C)C(=O)N[C@@H](CC(=O)O)C(=O)NCC(=O)N[C@H](CO)C(=O)N[C@@H]([C@H](C)CC(=O)O)C(=O)N[C@@H](CC(=O)c2ccccc2N)C(=O)O[C@@H]1C | Active | Active | – | – | – | – | – | – | – | – | – | – | – | – | – | – |
| CN[C@H](CC(C)C)C(=O)N[C@H]1C(=O)N[C@@H](CC(N)=O)C(=O)N[C@H]2C(=O)N[C@H]3C(=O)N[C@H](C(=O)N[C@H](C(=O)O)c4cc(O)cc(O)c4-c4cc3ccc4O)[C@H](O)c3ccc(c(Cl)c3)Oc3cc2cc(c3O[C@@H]2O[C@H](CO)[C@@H](O)[C@H](O)[C@H]2O[C@H]2C[C@](C)(N)[C@H](O)[C@H](C)O2)Oc2ccc(cc2Cl)[C@H]1O | – | – | inactive | – | – | – | – | – | – | – | – | – | – | – | – | – |
| CN(C)c1cc(NC(=O)CNC(C)(C)C)c(O)c2c1C[C@H]1C[C@H]3[C@H](N(C)C)C(O)=C(C(N)=O)C(=O)[C@@]3(O)C(O)=C1C2=O | Active | – | – | – | – | – | – | – | – | – | – | – | – | – | – | Activity [4]: Active |
| CO[C@H]1/C=C/O[C@@]2(C)Oc3c(C)c(O)c4c(O)c(c(/C=N/N5CCN(C)CC5)c(O)c4c3C2=O)NC(=O)/C(C)=C\C=C\[C@H](C)[C@H](O)[C@@H](C)[C@@H](O)[C@@H](C)[C@H](OC(C)=O)[C@@H]1C [RIFAMPIN] | – | – | inactive | 128 (≈ 156 µM) | < 0.06 | 128 (≈ 156 µM) | < 0.06 | < 0.06 | < 0.06 | < 0.06 | < 0.06 | < 0.06 | < 0.06 | < 0.06 | Active | MIC [6]: < 0.06 µg/mL; MIC [7]: 128 µg/mL (≈ 156 µM); MIC [8]: 128 µg/mL (≈ 156 µM); MIC [19]: 128 µg/mL (≈ 156 µM); MIC [20]: 32 µg/mL (≈ 38.9 µM); MIC [21]: 128 µg/mL (≈ 156 µM); MIC [22]: 128 µg/mL (≈ 156 µM); MIC [23]: 128 µg/mL (≈ 156 µM) |
| CC(=O)NC[C@H]1CN(c2ccc(N3CCOCC3)c(F)c2)C(=O)O1 [LINEZOLID] | – | – | inactive | 8 (≈ 23.7 µM) | 0.5 (≈ 1.48 µM) | 0.5 (≈ 1.48 µM) | 0.5 (≈ 1.48 µM) | 0.25 (≈ 0.741 µM) | 0.5 (≈ 1.48 µM) | 0.5 (≈ 1.48 µM) | 0.5 (≈ 1.48 µM) | 1 (≈ 2.96 µM) | 1 (≈ 2.96 µM) | 0.5 (≈ 1.48 µM) | Active | Activity [6]: Active; Activity [8]: Active; Activity [19]: Active; Activity [21]: Active; Activity [22]: Active; Activity [23]: Active |
| CN(C)c1ccc(O)c2c1C[C@H]1C[C@H]3[C@H](N(C)C)C(O)=C(C(N)=O)C(=O)[C@@]3(O)C(O)=C1C2=O | Active | Active | – | – | – | – | – | – | – | – | – | – | – | – | – | – |
